Reference: patent US20210145801A1, “THERAPY FOR PROTEIN MISFOLDING DISEASE” (WREN THERAPEUTICS LIMITED, priority 2018, published 2021)

Test system: Aβ plaques
Assay: Aβ plaque quantification in APPPS1 transgenic mice
Assay type: in vivo
Details: 75 mg/kg/day once daily for 90 days from 60 days of age
Protocol: APPPS1 transgenic mice were used in the study, which co-express the Swedish mutation […] and PS1 mutation L166P under the control of the neuron-specific Thy-1 promoter on a C57BL/6 genetic background. APPPS1 mice were habituated ahead of the study to voluntarily drink a condensed milk formulation from a pipette. The condensed milk used in the study is commercially available (Migros) and contains milk, sugar, stabilizer E339. Body weight was measured ahead of commencing the study to calculate the dose of Netoglitazone for each mouse and to calculate the total blood volume. Mice aged 60 days old were then dosed once daily with a pipette for 90 days. The pipette contained 40-80 μL consisting of either condensed milk (2 ml/kg/day) only (placebo cohort) or condensed milk (2 ml/kg/day) and Netoglitazone (75 mg/kg/day). Blood was collected via retro-orbital sampling to monitor the concentration of Netoglitazone after 7 days and 28 days. Visual monitoring of the mice and measurement of body weight were conducted daily and every other week respectively. At the end of the experiment (i.e. after 90 days of once daily treatment such that mice were 150 days old), mice were euthanized and their brains were analyzed as outlined below. […]
The image files were analysed using custom-coded software. […]

Q: Which “Relative number of Aβ plaques in brain vs placebo” value does the source give for `O=C1NC(=O)C(Cc2ccc3cc(OCc4ccccc4F)ccc3c2)S1` (stereo not shown) [Netoglitazone] here?
A: decrease in the relative number of Aβ plaques
